{
  "source": "patent US8716284B2",
  "about": "“Adamantyl diamide derivatives and uses of same” (H. Lundbeck A/S, priority 2008, dated 2014)",
  "target": "T1, rat metabotropic glutamate receptor 5 (mGluR5) (Rattus norvegicus, UniProt P31424)",
  "T1 construct": "expressed in transfected cells; host or cells: HEK 293",
  "T1 sequence (P31424 21-1171 isoform P31424-2 limits assumed)": "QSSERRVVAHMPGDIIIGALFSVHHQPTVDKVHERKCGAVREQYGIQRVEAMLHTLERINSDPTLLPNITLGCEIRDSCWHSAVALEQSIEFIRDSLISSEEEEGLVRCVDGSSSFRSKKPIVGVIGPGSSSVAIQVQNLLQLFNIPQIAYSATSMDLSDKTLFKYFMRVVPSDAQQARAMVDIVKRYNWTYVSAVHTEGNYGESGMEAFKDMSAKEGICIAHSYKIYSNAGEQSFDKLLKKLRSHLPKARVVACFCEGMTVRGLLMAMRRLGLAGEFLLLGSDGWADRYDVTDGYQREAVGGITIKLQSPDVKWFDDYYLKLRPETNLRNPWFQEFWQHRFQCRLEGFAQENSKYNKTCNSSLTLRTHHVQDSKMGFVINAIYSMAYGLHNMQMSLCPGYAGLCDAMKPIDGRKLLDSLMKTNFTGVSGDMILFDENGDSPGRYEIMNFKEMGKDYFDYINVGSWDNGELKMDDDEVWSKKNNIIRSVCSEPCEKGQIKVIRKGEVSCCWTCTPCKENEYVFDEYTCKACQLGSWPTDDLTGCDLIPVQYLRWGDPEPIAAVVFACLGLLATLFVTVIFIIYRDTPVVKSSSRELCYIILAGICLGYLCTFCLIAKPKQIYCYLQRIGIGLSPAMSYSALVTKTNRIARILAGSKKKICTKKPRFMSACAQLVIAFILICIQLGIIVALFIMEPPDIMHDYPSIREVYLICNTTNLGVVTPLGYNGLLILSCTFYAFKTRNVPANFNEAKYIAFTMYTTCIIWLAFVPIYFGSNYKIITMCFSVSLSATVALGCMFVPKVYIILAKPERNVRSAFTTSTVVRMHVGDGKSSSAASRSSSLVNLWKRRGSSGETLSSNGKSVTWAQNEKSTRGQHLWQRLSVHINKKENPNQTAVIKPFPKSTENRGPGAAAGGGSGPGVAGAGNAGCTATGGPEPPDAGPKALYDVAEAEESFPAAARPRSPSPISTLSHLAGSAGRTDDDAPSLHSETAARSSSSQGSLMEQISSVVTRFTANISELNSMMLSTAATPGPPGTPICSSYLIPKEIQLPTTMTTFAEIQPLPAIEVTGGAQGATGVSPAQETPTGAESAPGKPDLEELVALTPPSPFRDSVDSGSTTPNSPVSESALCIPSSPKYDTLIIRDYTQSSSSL",
  "experiment": "Calcium mobilization assay (FLIPR) for negative or positive allosteric activity, HEK 293 cells",
  "type": "cell-based",
  "details": "HEK293, negative allosteric modulation, inhibition of EC80 glutamate response; read-out: FLIPR maximum inhibition",
  "how_it_was_run": "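Peak Fluo-4 calcium signal over 3 min at room temperature, minus basal, fitted by Hill equation, in stable rat mGluR5 HEK 293 cells (HBSS/HEPES pH 7.4, BSA, probenecid). Inhibition scored against EC80 glutamate, potentiation against EC20 glutamate, glutamate given with compound.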",
  "data": [
    {"compound": "Cc1cc(F)cc(C(=O)NC23CC4CC(C2)CC(NC(=O)c2cncc(C)n2)(C4)C3)c1", "note": "[Example 158, 6-Methyl-pyrazine-2-carboxylic acid [3-(3-fluoro-5-methyl-benzoylamino)-adamantan-1-yl]-amide]", "values": [
      {"measurement": "Emax", "value": "70 to 99", "unit": "%"}
    ]},
    {"compound": "COc1cc(C(=O)NC23CC4CC(C2)CC(NC(=O)c2cncc(C)n2)(C4)C3)ccc1F", "note": "[Example 159, 6-Methyl-pyrazine-2-carboxylic acid [3-(4-fluoro-3-methoxy-benzoylamino)-adamantan-1-yl]-amide]", "values": [
      {"measurement": "Emax", "value": "70 to 99", "unit": "%"}
    ]},
    {"compound": "Cc1cncc(C(=O)NC23CC4CC(CC(NC(=O)c5ccnc(F)c5)(C4)C2)C3)n1", "note": "[Example 160, 6-Methyl-pyrazine-2-carboxylic acid {3-[(2-fluoro-pyridine-4-carbonyl)-amino]-adamantan-1-yl}-amide]", "values": [
      {"measurement": "Emax", "value": "70 to 99", "unit": "%"}
    ]},
    {"compound": "Cc1cncc(C(=O)NC23CC4CC(C2)CC(NC(=O)c2cc(Cl)ccc2F)(C4)C3)n1", "note": "[Example 161, 6-Methyl-pyrazine-2-carboxylic acid [3-(5-chloro-2-fluoro-benzoylamino)-adamantan-1-yl]-amide]", "values": [
      {"measurement": "Emax", "value": "70 to 99", "unit": "%"}
    ]},
    {"compound": "Cc1cncc(C(=O)NC23CC4CC(CC(NC(=O)c5cccc(OC(F)F)c5)(C4)C2)C3)n1", "note": "[Example 162, 6-Methyl-pyrazine-2-carboxylic acid [3-(3-difluoro-methoxy-benzoylamino)-adamantan-1-yl]-amide]", "values": [
      {"measurement": "Emax", "value": "70 to 99", "unit": "%"}
    ]},
    {"compound": "Cc1cncc(C(=O)NC23CC4CC(CC(NC(=O)c5cc(F)cc(Cl)c5)(C4)C2)C3)n1", "note": "[Example 163, 6-Methyl-pyrazine-2-carboxylic acid [3-(3-chloro-5-fluoro-benzoylamino)-adamantan-1-yl]-amide]", "values": [
      {"measurement": "Emax", "value": "70 to 99", "unit": "%"}
    ]},
    {"compound": "Cc1cncc(C(=O)NC23CC4CC(C2)CC(NC(=O)c2cccc(F)n2)(C4)C3)n1", "note": "[Example 164, 6-Methyl-pyrazine-2-carboxylic acid {3-[(6-fluoro-pyridine-2-carbonyl)-amino]-adamantan-1-yl}-amide]", "values": [
      {"measurement": "Emax", "value": "63 to 99", "unit": "%"}
    ]},
    {"compound": "Cc1cncc(C(=O)NC23CC4CC(C2)CC(NC(=O)c2cncc(C)n2)(C4)C3)c1", "note": "[Example 165, 6-Methyl-pyrazine-2-carboxylic acid {3-[(5-methyl-pyridine-3-carbonyl)-amino]-adamantan-1-yl}-amide]", "values": [
      {"measurement": "Emax", "value": "63 to 99", "unit": "%"}
    ]},
    {"compound": "Cc1cncc(C(=O)NC23CC4CC(CC(NC(=O)c5ccc(F)c(C)c5)(C4)C2)C3)n1", "note": "[Example 166, 6-Methyl-pyrazine-2-carboxylic acid [3-(4-fluoro-3-methyl-benzoylamino)-adamantan-1-yl]-amide]", "values": [
      {"measurement": "Emax", "value": "63 to 99", "unit": "%"}
    ]},
    {"compound": "COc1cccc(C(=O)NC23CC4CC(CC(NC(=O)c5cncc(C)n5)(C4)C2)C3)c1F", "note": "[Example 167, 6-Methyl-pyrazine-2-carboxylic acid [3-(2-fluoro-3-methoxy-benzoylamino)-adamantan-1-yl]-amide]", "values": [
      {"measurement": "Emax", "value": "63 to 99", "unit": "%"}
    ]},
    {"compound": "Cc1cncc(C(=O)NC23CC4CC(C2)CC(NC(=O)c2ncccc2C)(C4)C3)n1", "note": "[Example 168, 6-Methyl-pyrazine-2-carboxylic acid {3-[(3-methyl-pyridine-2-carbonyl)-amino]-adamantan-1-yl}-amide]", "values": [
      {"measurement": "Emax", "value": "63 to 99", "unit": "%"}
    ]},
    {"compound": "Cc1cncc(C(=O)NC23CC4CC(C2)CC(NC(=O)c2cc(C(F)(F)F)ccc2F)(C4)C3)n1", "note": "[Example 169, 6-Methyl-pyrazine-2-carboxylic acid [3-(2-fluoro-5-trifluoromethyl-benzoylamino)-adamantan-1-yl]-amide]", "values": [
      {"measurement": "Emax", "value": "63 to 99", "unit": "%"}
    ]},
    {"compound": "Cc1cncc(C(=O)NC23CC4CC(CC(NC(=O)c5cncc(Cl)c5)(C4)C2)C3)n1", "note": "[Example 170, 6-Methyl-pyrazine-2-carboxylic acid {3-[(5-chloro-pyridine-3-carbonyl)-amino]-adamantan-1-yl}-amide]", "values": [
      {"measurement": "Emax", "value": "63 to 99", "unit": "%"}
    ]},
    {"compound": "Cc1cncc(C(=O)NC23CC4CC(CC(NC(=O)c5cc(F)ccn5)(C4)C2)C3)n1", "note": "[Example 171, 6-Methyl-pyrazine-2-carboxylic acid {3-[(4-fluoro-pyridine-2-carbonyl)-amino]-adamantan-1-yl}-amide]", "values": [
      {"measurement": "Emax", "value": "63 to 99", "unit": "%"}
    ]},
    {"compound": "Cc1cncc(C(=O)NC23CC4CC(C2)CC(NC(=O)c2ncccn2)(C4)C3)n1", "note": "[Example 172, Pyrimidine-2-carboxylic acid {3-[(6-methyl-pyrazine-2-carbonyl)-amino]-adamantan-1-yl}-amide]", "values": [
      {"measurement": "Emax", "value": "63 to 99", "unit": "%"}
    ]},
    {"compound": "Cc1cncc(C(=O)NC23CC4CC(C2)CC(NC(=O)c2ccnc(C)n2)(C4)C3)n1", "note": "[Example 173, 2-Methyl-pyrimidine-4-carboxylic acid {3-[(6-methyl-pyrazine-2-carbonyl)-amino]-adamantan-1-yl}-amide]", "values": [
      {"measurement": "Emax", "value": "63 to 99", "unit": "%"}
    ]},
    {"compound": "Cc1cncc(C(=O)NC23CC4CC(C2)CC(NC(=O)c2ccc5cnccc5n2)(C4)C3)n1", "note": "[Example 174, [1,6]Naphthyridine-2-carboxylic acid {3-[(6-methyl-pyrazine-2-carbonyl)-amino]-adamantan-1-yl}-amide]", "values": [
      {"measurement": "Emax", "value": "63 to 99", "unit": "%"}
    ]},
    {"compound": "Cc1cncc(C(=O)NC23CC4CC(CC(NC(=O)c5ccc6ocnc6c5)(C4)C2)C3)n1", "note": "[Example 175, Benzoxazole-5-carboxylic acid {3-[(6-methyl-pyrazine-2-carbonyl)-amino]-adamantan-1-yl}-amide]", "values": [
      {"measurement": "Emax", "value": "63 to 99", "unit": "%"}
    ]},
    {"compound": "Cc1cncc(C(=O)NC23CC4CC(CC(NC(=O)c5cc(Br)ccn5)(C4)C2)C3)n1", "note": "[Example 176, 6-Methyl-pyrazine-2-carboxylic acid {3-[(4-bromo-pyridine-2-carbonyl)-amino]-adamantan-1-yl}-amide]", "values": [
      {"measurement": "Emax", "value": "63 to 99", "unit": "%"}
    ]},
    {"compound": "Cc1cncc(C(=O)NC23CC4CC(CC(NC(=O)c5ccc(F)cc5)(C4)C2)C3)n1", "note": "[Example 177, 6-Methyl-pyrazine-2-carboxylic acid [3-(4-fluoro-benzoylamino)-adamantan-1-yl]-amide]", "values": [
      {"measurement": "Emax", "value": "63 to 99", "unit": "%"}
    ]},
    {"compound": "Cc1cncc(C(=O)NC23CC4CC(CC(NC(=O)c5ccnc(Br)c5)(C4)C2)C3)n1", "note": "[Example 178, 6-Methyl-pyrazine-2-carboxylic acid {3-[(2-bromo-pyridine-4-carbonyl)-amino]-adamantan-1-yl}-amide]", "values": [
      {"measurement": "Emax", "value": "63 to 99", "unit": "%"}
    ]},
    {"compound": "Cc1cncc(C(=O)NC23CC4CC(C2)CC(NC(=O)c2nccc(C(F)(F)F)n2)(C4)C3)n1", "note": "[Example 181, 4-Trifluoromethyl-pyrimidine-2-carboxylic acid {3-[(6-methyl-pyrazine-2-carbonyl)-amino]-adamantan-1-yl}-amide]", "values": [
      {"measurement": "Emax", "value": "63 to 99", "unit": "%"}
    ]},
    {"compound": "Cc1ccnc(C(=O)NC23CC4CC(CC(NC(=O)c5cccc(F)c5)(C4)C2)C3)n1", "note": "[Example 182, 4-Methyl-pyrimidine-2-carboxylic acid [3-(3-fluoro-benzoylamino)-adamantan-1-yl]-amide]", "values": [
      {"measurement": "Emax", "value": "63 to 99", "unit": "%"}
    ]},
    {"compound": "O=C(NC12CC3CC(C1)CC(NC(=O)c1nccc(C(F)(F)F)n1)(C3)C2)c1cccc(F)c1", "note": "[Example 184, 4-Trifluoromethyl-pyrimidine-2-carboxylic acid [3-(3-fluoro-benzoylamino)-adamantan-1-yl]-amide]", "values": [
      {"measurement": "Emax", "value": "63 to 99", "unit": "%"}
    ]},
    {"compound": "O=C(NC12CC3CC(C1)CC(NC(=O)c1cnccn1)(C3)C2)c1ccnc(Br)c1", "note": "[Example 186, Pyrazine-2-carboxylic acid {3-[(2-bromo-pyridine-4-carbonyl)-amino]-adamantan-1-yl}-amide]", "values": [
      {"measurement": "Emax", "value": "63 to 99", "unit": "%"}
    ]},
    {"compound": "Cc1nc(C(=O)NC23CC4CC(CC(NC(=O)c5cnccn5)(C4)C2)C3)cs1", "note": "[Example 187, Pyrazine-2-carboxylic acid {3-[(2-methyl-thiazole-4-carbonyl)-amino]-adamantan-1-yl}-amide]", "values": [
      {"measurement": "Emax", "value": "63 to 99", "unit": "%"}
    ]},
    {"compound": "Cc1ccnc(C(=O)NC23CC4CC(CC(NC(=O)c5cnccn5)(C4)C2)C3)n1", "note": "[Example 189, 4-Methyl-pyrimidine-2-carboxylic acid {3-[(pyrazine-2-carbonyl)-amino]-adamantan-1-yl}-amide]", "values": [
      {"measurement": "Emax", "value": "63 to 99", "unit": "%"}
    ]},
    {"compound": "O=C(NC12CC3CC(C1)CC(NC(=O)c1ccnc(C(F)(F)F)n1)(C3)C2)c1cnccn1", "note": "[Example 190, 2-Trifluoromethyl-pyrimidine-4-carboxylic acid {3-[(pyrazine-2-carbonyl)-amino]-adamantan-1-yl}-amide]", "values": [
      {"measurement": "Emax", "value": "63 to 99", "unit": "%"}
    ]},
    {"compound": "Cc1nccc(C(=O)NC23CC4CC(CC(NC(=O)c5ccc(F)cn5)(C4)C2)C3)n1", "note": "[Example 191, 2-Methyl-pyrimidine-4-carboxylic acid {3-[(5-fluoro-pyridine-2-carbonyl)-amino]-adamantan-1-yl}-amide]", "values": [
      {"measurement": "Emax", "value": "63 to 99", "unit": "%"}
    ]},
    {"compound": "Cc1nccc(C(=O)NC23CC4CC(C2)CC(NC(=O)c2nccc(C(F)(F)F)n2)(C4)C3)n1", "note": "[Example 192, 4-Trifluoromethyl-pyrimidine-2-carboxylic acid {3-[(2-methyl-pyrimidine-4-carbonyl)-amino]-adamantan-1-yl}-amide]", "values": [
      {"measurement": "Emax", "value": "63 to 99", "unit": "%"}
    ]},
    {"compound": "Cc1ccnc(C(=O)NC23CC4CC(CC(NC(=O)c5ccnc(C)n5)(C4)C2)C3)n1", "note": "[Example 193, 2-Methyl-pyrimidine-4-carboxylic acid {3-[(4-methyl-pyrimidine-2-carbonyl)-amino]-adamantan-1-yl}-amide]", "values": [
      {"measurement": "Emax", "value": "63 to 99", "unit": "%"}
    ]},
    {"compound": "Cc1ccnc(C(=O)NC23CC4CC(CC(NC(=O)c5ccncn5)(C4)C2)C3)n1", "note": "[Example 194, 4-Methyl-pyrimidine-2-carboxylic acid {3-[(pyrimidine-4-carbonyl)-amino]-adamantan-1-yl}-amide]", "values": [
      {"measurement": "Emax", "value": "63 to 99", "unit": "%"}
    ]},
    {"compound": "O=C(NC12CC3CC(C1)CC(NC(=O)c1nccc(C(F)(F)F)n1)(C3)C2)c1ccncn1", "note": "[Example 196, 4-Trifluoromethyl-pyrimidine-2-carboxylic acid {3-[(pyrimidine-4-carbonyl)-amino]-adamantan-1-yl}-amide]", "values": [
      {"measurement": "Emax", "value": "63 to 99", "unit": "%"}
    ]},
    {"compound": "O=C(NC12CC3CC(C1)CC(NC(=O)c1cccc(N4CCOCC4)n1)(C3)C2)c1ccccn1", "note": "[Example 197, 6-Morpholin-4-yl-pyridine-2-carboxylic acid {3-[(pyridine-2-carbonyl)-amino]-adamantan-1-yl}-amide]", "values": [
      {"measurement": "Emax", "value": "63 to 99", "unit": "%"}
    ]},
    {"compound": "CN1CCN(c2cccc(C(=O)NC34CC5CC(CC(NC(=O)c6ccccn6)(C5)C3)C4)n2)CC1", "note": "[Example 198, 6-(4-Methyl-piperazin-1-yl)-pyridine-2-carboxylic acid {3-[(pyridine-2-carbonyl)-amino]-adamantan-1-yl}-amide]", "values": [
      {"measurement": "Emax", "value": "63 to 99", "unit": "%"}
    ]}
  ]
}
